In publication PMC10882719 (Frontiers in Neuroscience, 2024):
Where two headings read alike, the source gives them in different places.

What was measured:
Assay type in all cases: cell-based
168 GPCRs [1] = target: T1, 168 GPCRs (Homo sapiens, UniProt O14842)
T1 construct: host or cells: PathHunter cell lines

168 GPCRs [2] = target: T2, 168 GPCRs (Homo sapiens, UniProt P0DMS8)
T2 construct: host or cells: PathHunter cell lines
T2 sequence (P0DMS8 1-318): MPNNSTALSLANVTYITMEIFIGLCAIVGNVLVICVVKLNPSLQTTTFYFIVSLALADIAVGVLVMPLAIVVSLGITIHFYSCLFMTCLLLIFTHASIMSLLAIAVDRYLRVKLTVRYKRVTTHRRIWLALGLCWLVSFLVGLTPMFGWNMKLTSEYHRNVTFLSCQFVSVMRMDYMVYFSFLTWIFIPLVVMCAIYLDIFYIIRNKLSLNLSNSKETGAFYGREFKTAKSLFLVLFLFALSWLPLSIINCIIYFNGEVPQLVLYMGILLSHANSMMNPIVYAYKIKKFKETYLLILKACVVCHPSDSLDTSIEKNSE

168 GPCRs [3] = target: T3, 168 GPCRs (Homo sapiens, UniProt P30556)
T3 construct: host or cells: PathHunter cell lines
T3 sequence (P30556 1-359): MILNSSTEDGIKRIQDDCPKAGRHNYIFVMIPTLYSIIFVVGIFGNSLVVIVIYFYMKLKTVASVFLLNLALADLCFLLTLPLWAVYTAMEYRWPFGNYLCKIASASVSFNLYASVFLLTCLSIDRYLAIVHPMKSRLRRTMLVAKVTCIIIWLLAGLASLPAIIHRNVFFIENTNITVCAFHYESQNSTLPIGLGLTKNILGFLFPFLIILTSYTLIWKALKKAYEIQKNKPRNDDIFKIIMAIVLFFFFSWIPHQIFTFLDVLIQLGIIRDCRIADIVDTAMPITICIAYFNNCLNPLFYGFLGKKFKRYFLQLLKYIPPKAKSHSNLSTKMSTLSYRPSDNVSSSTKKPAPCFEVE

168 GPCRs [4] = target: T4, 168 GPCRs (Homo sapiens, UniProt P32249)
T4 construct: host or cells: PathHunter cell lines

168 GPCRs [5] = target: T5, 168 GPCRs (Homo sapiens, UniProt P35408); details: PTGER4
T5 construct: host or cells: PathHunter cell lines

168 GPCRs [6] = target: T6, 168 GPCRs (Homo sapiens, UniProt P35462)
T6 construct: host or cells: PathHunter cell lines

168 GPCRs [7] = target: T7, 168 GPCRs (Homo sapiens, UniProt P41143); details: OPRD1
T7 construct: host or cells: PathHunter cell lines

168 GPCRs [8] = target: T8, 168 GPCRs (Homo sapiens, UniProt P47871); details: GCGR
T8 construct: host or cells: PathHunter cell lines

168 GPCRs [9] = target: T9, 168 GPCRs (Homo sapiens, UniProt P50391); details: PPYR1
T9 construct: host or cells: PathHunter cell lines

168 GPCRs [10] = target: T10, 168 GPCRs (Homo sapiens, UniProt Q01726); details: MC1R
T10 construct: host or cells: PathHunter cell lines

168 GPCRs [11] = target: T11, 168 GPCRs (Homo sapiens, UniProt Q8TDV5)
T11 construct: host or cells: PathHunter cell lines
T11 sequence (Q8TDV5 1-335): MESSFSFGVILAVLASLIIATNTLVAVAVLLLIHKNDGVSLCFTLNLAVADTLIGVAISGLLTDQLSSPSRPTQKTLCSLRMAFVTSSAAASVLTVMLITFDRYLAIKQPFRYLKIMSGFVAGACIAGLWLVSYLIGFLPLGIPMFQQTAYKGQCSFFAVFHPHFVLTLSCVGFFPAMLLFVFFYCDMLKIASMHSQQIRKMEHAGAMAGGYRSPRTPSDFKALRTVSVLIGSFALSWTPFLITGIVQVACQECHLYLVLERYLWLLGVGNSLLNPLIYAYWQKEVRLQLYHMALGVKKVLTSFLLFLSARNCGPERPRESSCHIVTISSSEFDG

168 GPCRs [12] = target: T12, 168 GPCRs (Homo sapiens, UniProt Q9GZQ6); details: NPFFR1
T12 construct: host or cells: PathHunter cell lines
T12 sequence (Q9GZQ6 whole entry): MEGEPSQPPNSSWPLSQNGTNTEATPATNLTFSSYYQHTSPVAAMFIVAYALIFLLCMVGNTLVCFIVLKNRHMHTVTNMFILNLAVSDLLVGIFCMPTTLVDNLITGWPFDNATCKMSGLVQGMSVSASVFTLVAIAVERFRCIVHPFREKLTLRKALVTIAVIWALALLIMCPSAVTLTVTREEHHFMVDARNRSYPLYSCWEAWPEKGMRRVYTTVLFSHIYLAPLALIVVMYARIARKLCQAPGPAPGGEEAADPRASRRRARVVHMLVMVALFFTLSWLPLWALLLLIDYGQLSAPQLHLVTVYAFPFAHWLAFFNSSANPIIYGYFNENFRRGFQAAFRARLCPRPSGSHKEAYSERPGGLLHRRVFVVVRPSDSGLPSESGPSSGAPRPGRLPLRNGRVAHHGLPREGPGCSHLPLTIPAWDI

T8 sequence (P47871 26-477): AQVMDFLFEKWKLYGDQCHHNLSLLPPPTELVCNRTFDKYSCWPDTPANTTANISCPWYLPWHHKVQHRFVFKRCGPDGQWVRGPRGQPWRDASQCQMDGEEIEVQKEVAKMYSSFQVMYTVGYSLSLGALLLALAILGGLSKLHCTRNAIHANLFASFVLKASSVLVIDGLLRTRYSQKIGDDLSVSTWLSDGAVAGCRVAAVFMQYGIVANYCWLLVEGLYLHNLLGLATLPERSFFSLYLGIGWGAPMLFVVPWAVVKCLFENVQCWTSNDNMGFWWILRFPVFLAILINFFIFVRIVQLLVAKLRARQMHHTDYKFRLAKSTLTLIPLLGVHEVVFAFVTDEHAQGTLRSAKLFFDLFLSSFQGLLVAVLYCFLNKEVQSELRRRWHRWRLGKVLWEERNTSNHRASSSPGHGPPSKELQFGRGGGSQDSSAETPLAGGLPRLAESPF
T6 sequence (P35462 whole entry): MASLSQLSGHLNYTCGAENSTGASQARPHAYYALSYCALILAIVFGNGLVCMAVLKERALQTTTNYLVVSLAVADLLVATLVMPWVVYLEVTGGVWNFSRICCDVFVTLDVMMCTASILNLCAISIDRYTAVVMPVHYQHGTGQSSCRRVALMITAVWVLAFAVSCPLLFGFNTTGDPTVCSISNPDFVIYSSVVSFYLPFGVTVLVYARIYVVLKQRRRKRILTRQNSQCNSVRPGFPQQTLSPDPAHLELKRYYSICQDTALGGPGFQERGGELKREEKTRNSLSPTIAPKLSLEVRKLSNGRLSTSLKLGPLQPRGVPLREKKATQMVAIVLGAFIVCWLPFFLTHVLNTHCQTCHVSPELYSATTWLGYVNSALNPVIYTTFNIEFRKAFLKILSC
T9 sequence (P50391 whole entry): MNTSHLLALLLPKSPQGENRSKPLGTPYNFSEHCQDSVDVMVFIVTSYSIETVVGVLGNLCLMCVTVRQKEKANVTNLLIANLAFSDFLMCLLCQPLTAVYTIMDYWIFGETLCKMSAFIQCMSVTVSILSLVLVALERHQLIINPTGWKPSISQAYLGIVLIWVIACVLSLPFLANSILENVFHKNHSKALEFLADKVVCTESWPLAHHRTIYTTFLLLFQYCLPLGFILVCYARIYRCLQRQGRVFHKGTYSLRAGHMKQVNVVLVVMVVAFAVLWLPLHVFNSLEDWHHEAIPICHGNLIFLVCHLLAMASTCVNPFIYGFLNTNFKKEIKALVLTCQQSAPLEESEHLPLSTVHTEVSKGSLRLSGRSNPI
T1 sequence (O14842 whole entry): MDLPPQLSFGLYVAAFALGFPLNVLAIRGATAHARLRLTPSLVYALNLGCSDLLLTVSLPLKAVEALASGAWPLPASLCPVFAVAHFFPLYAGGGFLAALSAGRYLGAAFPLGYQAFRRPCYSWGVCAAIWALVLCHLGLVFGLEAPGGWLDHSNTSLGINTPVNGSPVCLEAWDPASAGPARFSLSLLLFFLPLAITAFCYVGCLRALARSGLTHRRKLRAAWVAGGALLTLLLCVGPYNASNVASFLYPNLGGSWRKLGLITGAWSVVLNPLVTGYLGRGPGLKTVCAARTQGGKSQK
T5 sequence (P35408 whole entry): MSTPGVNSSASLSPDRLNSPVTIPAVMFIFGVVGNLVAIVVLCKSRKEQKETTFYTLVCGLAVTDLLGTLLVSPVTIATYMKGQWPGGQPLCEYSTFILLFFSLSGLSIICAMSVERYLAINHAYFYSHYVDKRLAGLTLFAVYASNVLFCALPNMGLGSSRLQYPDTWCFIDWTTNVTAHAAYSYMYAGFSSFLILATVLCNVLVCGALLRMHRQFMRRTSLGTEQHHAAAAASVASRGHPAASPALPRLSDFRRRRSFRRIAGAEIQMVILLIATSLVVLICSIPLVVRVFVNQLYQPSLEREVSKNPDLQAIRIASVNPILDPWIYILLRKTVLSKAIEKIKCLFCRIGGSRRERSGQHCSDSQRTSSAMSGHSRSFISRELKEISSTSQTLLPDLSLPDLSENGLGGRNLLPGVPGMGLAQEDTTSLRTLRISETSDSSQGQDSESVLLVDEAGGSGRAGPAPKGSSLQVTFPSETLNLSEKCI
T7 sequence (P41143 whole entry): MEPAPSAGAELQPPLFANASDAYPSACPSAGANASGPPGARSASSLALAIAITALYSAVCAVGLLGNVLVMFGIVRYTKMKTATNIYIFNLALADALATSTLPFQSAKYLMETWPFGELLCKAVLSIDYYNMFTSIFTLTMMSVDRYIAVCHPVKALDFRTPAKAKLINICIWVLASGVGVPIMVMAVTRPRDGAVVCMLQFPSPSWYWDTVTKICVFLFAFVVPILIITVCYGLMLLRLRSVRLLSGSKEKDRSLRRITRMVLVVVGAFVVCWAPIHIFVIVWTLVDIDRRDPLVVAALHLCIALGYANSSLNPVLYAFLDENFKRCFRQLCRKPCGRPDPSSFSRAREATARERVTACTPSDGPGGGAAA
T10 sequence (Q01726 whole entry): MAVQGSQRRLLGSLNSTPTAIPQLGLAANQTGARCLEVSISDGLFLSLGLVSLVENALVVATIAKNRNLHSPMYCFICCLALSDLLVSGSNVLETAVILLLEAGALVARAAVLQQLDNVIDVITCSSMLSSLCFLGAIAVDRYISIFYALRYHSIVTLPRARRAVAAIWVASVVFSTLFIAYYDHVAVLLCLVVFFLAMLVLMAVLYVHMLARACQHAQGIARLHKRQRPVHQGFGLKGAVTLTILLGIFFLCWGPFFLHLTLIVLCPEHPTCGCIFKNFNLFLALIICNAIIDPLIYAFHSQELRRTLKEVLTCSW
T4 sequence (P32249 whole entry): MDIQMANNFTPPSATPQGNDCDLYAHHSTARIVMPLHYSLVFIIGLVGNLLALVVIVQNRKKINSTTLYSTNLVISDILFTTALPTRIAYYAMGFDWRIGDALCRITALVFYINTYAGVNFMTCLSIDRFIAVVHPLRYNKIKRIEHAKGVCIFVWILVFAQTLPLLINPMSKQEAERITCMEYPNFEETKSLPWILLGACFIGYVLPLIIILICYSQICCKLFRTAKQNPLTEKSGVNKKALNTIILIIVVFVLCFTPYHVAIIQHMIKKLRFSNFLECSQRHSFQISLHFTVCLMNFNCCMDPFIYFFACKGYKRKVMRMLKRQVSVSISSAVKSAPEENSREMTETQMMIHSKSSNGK

CNC(C)C(=O)c1ccc2c(c1)OCO2 (stereo not drawn) [methylone]
% Agonist Activity (168 GPCRs [1]; FFAR1, 1 uM): 1.7%
% Antagonist Activity (168 GPCRs [1]; FFAR1, 1 uM): -7.9%
% Agonist Activity (168 GPCRs [1]; FFAR1, 10 uM): 4.5%
% Antagonist Activity (168 GPCRs [1]; FFAR1, 10 uM): -13.8%
% Agonist Activity (168 GPCRs [2]; ADORA3, 1 uM): -4.5%
% Antagonist Activity (168 GPCRs [2]; ADORA3, 1 uM): 11.3%
% Agonist Activity (168 GPCRs [2]; ADORA3, 10 uM): -5.3%
% Antagonist Activity (168 GPCRs [2]; ADORA3, 10 uM): 7.7%
% Agonist Activity (168 GPCRs [3]; AGTR1, 1 uM): -2.8%
% Antagonist Activity (168 GPCRs [3]; AGTR1, 1 uM): 3.3%
% Agonist Activity (168 GPCRs [3]; AGTR1, 10 uM): -1%
% Antagonist Activity (168 GPCRs [3]; AGTR1, 10 uM): -1.4%
% Agonist Activity (168 GPCRs [4]; EBI2, 1 uM): 0.5%
% Antagonist Activity (168 GPCRs [4]; EBI2, 1 uM): 0.6%
% Agonist Activity (168 GPCRs [4]; EBI2, 10 uM): -0.1%
% Antagonist Activity (168 GPCRs [4]; EBI2, 10 uM): -2.6%
% Agonist Activity (168 GPCRs [5]; Conc 1 uM): -2.8%
% Antagonist Activity (168 GPCRs [5]; Conc 1 uM): 10.1%
% Agonist Activity (168 GPCRs [5]; Conc 10 uM): -1.4%
% Antagonist Activity (168 GPCRs [5]; Conc 10 uM): 4.3%
% Agonist Activity (168 GPCRs [6]; DRD3, 1 uM): 2.2%
% Antagonist Activity (168 GPCRs [6]; DRD3, 1 uM): -12%
% Agonist Activity (168 GPCRs [6]; DRD3, 10 uM): 2.3%
% Antagonist Activity (168 GPCRs [6]; DRD3, 10 uM): -17.8%
% Agonist Activity (168 GPCRs [7]; Conc 1 uM): -2%
% Antagonist Activity (168 GPCRs [7]; Conc 1 uM): -2.7%
% Agonist Activity (168 GPCRs [7]; Conc 10 uM): -1.5%
% Antagonist Activity (168 GPCRs [7]; Conc 10 uM): 3.5%
% Agonist Activity (168 GPCRs [8]; 1 uM): -2.3%
% Antagonist Activity (168 GPCRs [8]; 1 uM): -16%
% Agonist Activity (168 GPCRs [8]; 10 uM): -3%
% Antagonist Activity (168 GPCRs [8]; 10 uM): -7.7%
% Agonist Activity (168 GPCRs [9]; Conc 1 uM): -1.7%
% Antagonist Activity (168 GPCRs [9]; Conc 1 uM): 9.5%
% Agonist Activity (168 GPCRs [9]; Conc 10 uM): -1.2%
% Antagonist Activity (168 GPCRs [9]; Conc 10 uM): 6.5%
% Agonist Activity (168 GPCRs [10]; 1 uM): -2.6%
% Antagonist Activity (168 GPCRs [10]; 1 uM): 20.1%
% Agonist Activity (168 GPCRs [10]; 10 uM): -4.4%
% Antagonist Activity (168 GPCRs [10]; 10 uM): 15.9%
% Agonist Activity (168 GPCRs [11]; GPR119, 1 uM): -5.8%
% Antagonist Activity (168 GPCRs [11]; GPR119, 1 uM): 17.1%
% Agonist Activity (168 GPCRs [11]; GPR119, 10 uM): -2.2%
% Antagonist Activity (168 GPCRs [11]; GPR119, 10 uM): -8.8%
% Agonist Activity (168 GPCRs [12]; Conc 1 uM): -4.6%
% Antagonist Activity (168 GPCRs [12]; Conc 1 uM): 32%
% Agonist Activity (168 GPCRs [12]; Conc 10 uM): -5.6%
% Antagonist Activity (168 GPCRs [12]; Conc 10 uM): 27.1%

CNC(C)Cc1ccc2c(c1)OCO2 (stereo not drawn) [MDMA, 3,4-Methylenedioxy methamphetamine, reference compound]
% Agonist Activity (168 GPCRs [1]; FFAR1, 1 uM): 3.9%
% Antagonist Activity (168 GPCRs [1]; FFAR1, 1 uM): -5.6%
% Agonist Activity (168 GPCRs [1]; FFAR1, 10 uM): 7%
% Antagonist Activity (168 GPCRs [1]; FFAR1, 10 uM): -0.4%
% Agonist Activity (168 GPCRs [2]; ADORA3, 1 uM): 0.7%
% Antagonist Activity (168 GPCRs [2]; ADORA3, 1 uM): -15.4%
% Agonist Activity (168 GPCRs [2]; ADORA3, 10 uM): 0.6%
% Antagonist Activity (168 GPCRs [2]; ADORA3, 10 uM): -11.5%
% Agonist Activity (168 GPCRs [3]; AGTR1, 1 uM): 3.5%
% Antagonist Activity (168 GPCRs [3]; AGTR1, 1 uM): -17.7%
% Agonist Activity (168 GPCRs [3]; AGTR1, 10 uM): 3.2%
% Antagonist Activity (168 GPCRs [3]; AGTR1, 10 uM): -14.5%
% Agonist Activity (168 GPCRs [4]; EBI2, 1 uM): 0.6%
% Antagonist Activity (168 GPCRs [4]; EBI2, 1 uM): 4.4%
% Agonist Activity (168 GPCRs [4]; EBI2, 10 uM): -0.4%
% Antagonist Activity (168 GPCRs [4]; EBI2, 10 uM): 7.9%
% Agonist Activity (168 GPCRs [5]; Conc 1 uM): 11.1%
% Antagonist Activity (168 GPCRs [5]; Conc 1 uM): 7.2%
% Agonist Activity (168 GPCRs [5]; Conc 10 uM): 7.8%
% Antagonist Activity (168 GPCRs [5]; Conc 10 uM): 11.7%
% Agonist Activity (168 GPCRs [6]; DRD3, 1 uM): 7.1%
% Antagonist Activity (168 GPCRs [6]; DRD3, 1 uM): 9.6%
% Agonist Activity (168 GPCRs [6]; DRD3, 10 uM): 7.3%
% Antagonist Activity (168 GPCRs [6]; DRD3, 10 uM): 10.6%
% Agonist Activity (168 GPCRs [7]; Conc 1 uM): -0.7%
% Antagonist Activity (168 GPCRs [7]; Conc 1 uM): -15.5%
% Agonist Activity (168 GPCRs [7]; Conc 10 uM): -1.1%
% Antagonist Activity (168 GPCRs [7]; Conc 10 uM): -17.6%
% Agonist Activity (168 GPCRs [8]; 1 uM): -1%
% Antagonist Activity (168 GPCRs [8]; 1 uM): -1.7%
% Agonist Activity (168 GPCRs [8]; 10 uM): -0.9%
% Antagonist Activity (168 GPCRs [8]; 10 uM): -7.4%
% Agonist Activity (168 GPCRs [9]; Conc 1 uM): 0.3%
% Antagonist Activity (168 GPCRs [9]; Conc 1 uM): 5.9%
% Agonist Activity (168 GPCRs [9]; Conc 10 uM): 0.9%
% Antagonist Activity (168 GPCRs [9]; Conc 10 uM): 6.9%
% Agonist Activity (168 GPCRs [10]; 1 uM): -6.6%
% Antagonist Activity (168 GPCRs [10]; 1 uM): 6.5%
% Agonist Activity (168 GPCRs [10]; 10 uM): -3.4%
% Antagonist Activity (168 GPCRs [10]; 10 uM): -4.9%
% Agonist Activity (168 GPCRs [11]; GPR119, 1 uM): 17.1%
% Antagonist Activity (168 GPCRs [11]; GPR119, 1 uM): 2.7%
% Agonist Activity (168 GPCRs [11]; GPR119, 10 uM): 10.2%
% Antagonist Activity (168 GPCRs [11]; GPR119, 10 uM): 3.8%
% Agonist Activity (168 GPCRs [12]; Conc 1 uM): -3.2%
% Antagonist Activity (168 GPCRs [12]; Conc 1 uM): 17.7%
% Agonist Activity (168 GPCRs [12]; Conc 10 uM): -5.5%
% Antagonist Activity (168 GPCRs [12]; Conc 10 uM): 20.8%
